From patent US20230085307A1, “PYRIDAZINONE COMPOUND AND HERBICIDE” (NISSAN CHEMICAL CORPORATION, priority 2019, published 2023)

What was measured:
[1] = tested on: lambsquarters; assay: Test Example 5: herbicidal effect by foliage application, plastic box (Table 20, symbol O); assay type: in vivo, lambsquarters (Chenopodium album); conditions: foliage application, 320 g/ha
Outline: (§1)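 Plants were sown into sterilized diluvial soil under about 1.5 cm cover and kept in a greenhouse at 25° C. to 30° C. Fourteen days on, foliage received an even spray of the diluted emulsion. Herbicidal or crop effect was judged three weeks afterwards.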

[2] = tested on: velvetleaf; assay: Test Example 4: herbicidal effect by soil treatment (Table 19, symbol M); assay type: in vivo, velvetleaf (Abutilon theophrasti); conditions: amount of applied herbicide 320 g/ha
Outline: (§2)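 In this soil treatment, the formulated compound reached the seeds only through the soil: seeds were buried about 1.5 cm deep in sterilized diluvial soil, then the diluted emulsion was sprayed over the surface. After three weeks at 25° C. to 30° C. in a greenhouse, effects were graded on criteria from an earlier test.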

[3] = tested on: barnyard grass; assay: Test Example 3: herbicidal effect by foliage application, Wagner pot (Table 18, symbol H); assay type: in vivo, barnyard grass (Echinochloa crus-galli); conditions: amount of applied herbicide 320 g/ha
Outline: (§3)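 Plants were sown in alluvial soil held under 0.1–0.5 cm standing water and grown 14 days in a greenhouse at 25–30 °C. An emulsifiable formulation, water-diluted to the set dose, was then sprayed onto the foliage, and effects were scored three weeks later using previously defined criteria.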

[4] = tested on: lambsquarters; assay: Test Example 4: herbicidal effect by soil treatment (Table 19, symbol O); assay type: in vivo, lambsquarters (Chenopodium album); conditions: amount of applied herbicide 320 g/ha
Outline: as §2

[5] = tested on: blackgrass; assay: Test Example 4: herbicidal effect by soil treatment (Table 19, symbol J); assay type: in vivo, blackgrass (Alopecurus myosuroides); conditions: amount of applied herbicide 320 g/ha
Outline: as §2

[6] = tested on: Chinese sprangletop; assay: Test Example 3: herbicidal effect by foliage application, Wagner pot (Table 18, symbol D); assay type: in vivo, chinese sprangletop (Leptochloa chinensis); conditions: amount of applied herbicide 320 g/ha
Outline: as §3

[7] = tested on: blackgrass; assay: Test Example 5: herbicidal effect by foliage application, plastic box (Table 20, symbol J); assay type: in vivo, blackgrass (Alopecurus myosuroides); conditions: foliage application, 320 g/ha
Outline: as §1

[8] = tested on: wild oat; assay: Test Example 5: herbicidal effect by foliage application, plastic box (Table 20, symbol I); assay type: in vivo, wild oat (Avena fatua); conditions: foliage application, 320 g/ha
Outline: as §1

[9] = tested on: barnyard grass; assay: Test Example 5: herbicidal effect by foliage application, plastic box (Table 20, symbol H); assay type: in vivo, barnyard grass (Echinochloa crus-galli); conditions: foliage application, 320 g/ha
Outline: as §1

[10] = tested on: windgrass; assay: Test Example 4: herbicidal effect by soil treatment (Table 19, symbol L); assay type: in vivo, windgrass (Apera spica-venti); conditions: amount of applied herbicide 320 g/ha
Outline: as §2

[11] = tested on: chickweed; assay: Test Example 5: herbicidal effect by foliage application, plastic box (Table 20, symbol P); assay type: in vivo, common chickweed (Stellaria media); conditions: foliage application, 320 g/ha
Outline: as §1

[12] = tested on: false cleavers; assay: Test Example 4: herbicidal effect by soil treatment (Table 19, symbol Q); assay type: in vivo, false cleavers (Galium spurium); conditions: amount of applied herbicide 320 g/ha
Outline: as §2

[13] = tested on: windgrass; assay: Test Example 5: herbicidal effect by foliage application, plastic box (Table 20, symbol L); assay type: in vivo, windgrass (Apera spica-venti); conditions: foliage application, 320 g/ha
Outline: as §1

[14] = tested on: chickweed; assay: Test Example 4: herbicidal effect by soil treatment (Table 19, symbol P); assay type: in vivo, common chickweed (Stellaria media); conditions: amount of applied herbicide 320 g/ha
Outline: as §2

[15] = tested on: redroot pigweed; assay: Test Example 5: herbicidal effect by foliage application, plastic box (Table 20, symbol N); assay type: in vivo, redroot pigweed (Amaranthus retroflexus); conditions: foliage application, 320 g/ha
Outline: as §1

[16] = tested on: Italian ryegrass; assay: Test Example 5: herbicidal effect by foliage application, plastic box (Table 20, symbol K); assay type: in vivo, Italian ryegrass (Lolium multiflorum); conditions: foliage application, 320 g/ha
Outline: as §1

[17] = tested on: southern crabgrass; assay: Test Example 4: herbicidal effect by soil treatment (Table 19, symbol F); assay type: in vivo, southern crabgrass (Digitaria ciliaris); conditions: amount of applied herbicide 320 g/ha
Outline: as §2

[18] = tested on: Italian ryegrass; assay: Test Example 4: herbicidal effect by soil treatment (Table 19, symbol K); assay type: in vivo, Italian ryegrass (Lolium multiflorum); conditions: amount of applied herbicide 320 g/ha
Outline: as §2

[19] = tested on: barnyard grass; assay: Test Example 4: herbicidal effect by soil treatment (Table 19, symbol H); assay type: in vivo, barnyard grass (Echinochloa crus-galli); conditions: amount of applied herbicide 320 g/ha
Outline: as §2

[20] = tested on: persian speedwell; assay: Test Example 4: herbicidal effect by soil treatment (Table 19, symbol R); assay type: in vivo, Persian speedwell (Veronica persica); conditions: amount of applied herbicide 320 g/ha
Outline: as §2

[21] = tested on: wild oat; assay: Test Example 4: herbicidal effect by soil treatment (Table 19, symbol I); assay type: in vivo, wild oat (Avena fatua); conditions: amount of applied herbicide 320 g/ha
Outline: as §2

[22] = tested on: persian speedwell; assay: Test Example 5: herbicidal effect by foliage application, plastic box (Table 20, symbol R); assay type: in vivo, Persian speedwell (Veronica persica); conditions: foliage application, 320 g/ha
Outline: as §1

[23] = tested on: rice flat sedge; assay: Test Example 3: herbicidal effect by foliage application, Wagner pot (Table 18, symbol E); assay type: in vivo, rice flat sedge (Cyperus iria); conditions: amount of applied herbicide 320 g/ha
Outline: as §3

[24] = tested on: green foxtail; assay: Test Example 5: herbicidal effect by foliage application, plastic box (Table 20, symbol G); assay type: in vivo, green foxtail (Setaria viridis); conditions: foliage application, 320 g/ha
Outline: as §1

[25] = tested on: southern crabgrass; assay: Test Example 5: herbicidal effect by foliage application, plastic box (Table 20, symbol F); assay type: in vivo, southern crabgrass (Digitaria ciliaris); conditions: foliage application, 320 g/ha
Outline: as §1

[26] = tested on: velvetleaf; assay: Test Example 5: herbicidal effect by foliage application, plastic box (Table 20, symbol M); assay type: in vivo, velvetleaf (Abutilon theophrasti); conditions: foliage application, 320 g/ha
Outline: as §1

[27] = tested on: false cleavers; assay: Test Example 5: herbicidal effect by foliage application, plastic box (Table 20, symbol Q); assay type: in vivo, false cleavers (Galium spurium); conditions: foliage application, 320 g/ha
Outline: as §1

[28] = tested on: green foxtail; assay: Test Example 4: herbicidal effect by soil treatment (Table 19, symbol G); assay type: in vivo, green foxtail (Setaria viridis); conditions: amount of applied herbicide 320 g/ha
Outline: as §2

[29] = tested on: redroot pigweed; assay: Test Example 4: herbicidal effect by soil treatment (Table 19, symbol N); assay type: in vivo, redroot pigweed (Amaranthus retroflexus); conditions: amount of applied herbicide 320 g/ha
Outline: as §2

[30] = evaluated three weeks after application

Structure (SMILES): COc1cc(F)ccc1-c1sc2ccc(C)cc2c1-c1c(O)c(C)nn(C)c1=O [2-148]
- herbicidal effect on O: lambsquarters (criteria 0-5) [1, 30]: 4 (Herbicidal rate of 70% or more and less than 90%)
- M: velvetleaf, herbicidal effect rating [2]: 3 (Herbicidal rate of 40% or more and less than 70%)
- herbicidal effect on H: barnyard grass [3]: 5 (Herbicidal rate of 90% or more (almost completely withered))
- O: lambsquarters, herbicidal effect rating [4]: 5 (Herbicidal rate of 90% or more (almost completely withered))
- J: blackgrass, herbicidal effect rating [5]: 3 (Herbicidal rate of 40% or more and less than 70%)
- herbicidal effect on D: Chinese sprangletop [6]: 3 (Herbicidal rate of 40% or more and less than 70%)
- herbicidal effect on J: blackgrass (criteria 0-5) [7, 30]: 4 (Herbicidal rate of 70% or more and less than 90%)
- herbicidal effect on I: wild oat (criteria 0-5) [8, 30]: 3 (Herbicidal rate of 40% or more and less than 70%)
- herbicidal effect on H: barnyard grass (criteria 0-5) [9, 30]: 5 (Herbicidal rate of 90% or more (almost completely withered))
- L: windgrass, herbicidal effect rating [10]: 0 (Herbicidal rate of 5% or less (almost no effect))
- herbicidal effect on P: chickweed (criteria 0-5) [11, 30]: 5 (Herbicidal rate of 90% or more (almost completely withered))
- Q: false cleavers, herbicidal effect rating [12]: 5 (Herbicidal rate of 90% or more (almost completely withered))
- herbicidal effect on L: windgrass (criteria 0-5) [13, 30]: 3 (Herbicidal rate of 40% or more and less than 70%)
- P: chickweed, herbicidal effect rating [14]: 5 (Herbicidal rate of 90% or more (almost completely withered))
- herbicidal effect on N: redroot pigweed (criteria 0-5) [15, 30]: 5 (Herbicidal rate of 90% or more (almost completely withered))
- herbicidal effect on K: Italian ryegrass (criteria 0-5) [16, 30]: 4 (Herbicidal rate of 70% or more and less than 90%)
- F: southern crabgrass, herbicidal effect rating [17]: 3 (Herbicidal rate of 40% or more and less than 70%)
- K: Italian ryegrass, herbicidal effect rating [18]: 1 (Herbicidal rate of 5% or more and less than 20%)
- H: barnyard grass, herbicidal effect rating [19]: 4 (Herbicidal rate of 70% or more and less than 90%)
- R: persian speedwell, herbicidal effect rating [20]: 5 (Herbicidal rate of 90% or more (almost completely withered))
- I: wild oat, herbicidal effect rating [21]: 0 (Herbicidal rate of 5% or less (almost no effect))
- herbicidal effect on R: persian speedwell (criteria 0-5) [22, 30]: 5 (Herbicidal rate of 90% or more (almost completely withered))
- herbicidal effect on E: rice flat sedge [23]: 5 (Herbicidal rate of 90% or more (almost completely withered))
- herbicidal effect on G: green foxtail (criteria 0-5) [24, 30]: 5 (Herbicidal rate of 90% or more (almost completely withered))
- herbicidal effect on F: southern crabgrass (criteria 0-5) [25, 30]: 5 (Herbicidal rate of 90% or more (almost completely withered))
- herbicidal effect on M: velvetleaf (criteria 0-5) [26, 30]: 4 (Herbicidal rate of 70% or more and less than 90%)
- herbicidal effect on Q: false cleavers (criteria 0-5) [27, 30]: 5 (Herbicidal rate of 90% or more (almost completely withered))

Structure (SMILES): CCCC(=O)Oc1c(C)nn(C)c(=O)c1-c1c(-c2ccc(OCC)cc2)sc2cc(OC)ccc12 [3-073]
- O: lambsquarters, herbicidal effect grade ([1]; three weeks after application): 2 (Herbicidal rate of 20% or more and less than 40%)
- M: velvetleaf, herbicidal effect grade [2]: 0 (Herbicidal rate of 5% or less (almost no effect))
- O: lambsquarters, herbicidal effect grade [4]: 3 (Herbicidal rate of 40% or more and less than 70%)
- J: blackgrass, herbicidal effect grade [5]: 0 (Herbicidal rate of 5% or less (almost no effect))
- J: blackgrass, herbicidal effect grade ([7]; three weeks after application): 0 (Herbicidal rate of 5% or less (almost no effect))
- G: green foxtail, herbicidal effect grade [28]: 3 (Herbicidal rate of 40% or more and less than 70%)
- I: wild oat, herbicidal effect grade ([8]; three weeks after application): 0 (Herbicidal rate of 5% or less (almost no effect))
- H: barnyard grass, herbicidal effect grade ([9]; three weeks after application): 0 (Herbicidal rate of 5% or less (almost no effect))
- L: windgrass, herbicidal effect grade [10]: 0 (Herbicidal rate of 5% or less (almost no effect))
- P: chickweed, herbicidal effect grade ([11]; three weeks after application): 5 (Herbicidal rate of 90% or more (almost completely withered))
- Q: false cleavers, herbicidal effect grade [12]: 2 (Herbicidal rate of 20% or more and less than 40%)
- L: windgrass, herbicidal effect grade ([13]; three weeks after application): 0 (Herbicidal rate of 5% or less (almost no effect))
- P: chickweed, herbicidal effect grade [14]: 4 (Herbicidal rate of 70% or more and less than 90%)
- N: redroot pigweed, herbicidal effect grade ([15]; three weeks after application): 3 (Herbicidal rate of 40% or more and less than 70%)
- K: Italian ryegrass, herbicidal effect grade ([16]; three weeks after application): 0 (Herbicidal rate of 5% or less (almost no effect))
- F: southern crabgrass, herbicidal effect grade [17]: 3 (Herbicidal rate of 40% or more and less than 70%)
- K: Italian ryegrass, herbicidal effect grade [18]: 0 (Herbicidal rate of 5% or less (almost no effect))
- H: barnyard grass, herbicidal effect grade [19]: 3 (Herbicidal rate of 40% or more and less than 70%)
- R: persian speedwell, herbicidal effect grade [20]: 4 (Herbicidal rate of 70% or more and less than 90%)
- I: wild oat, herbicidal effect grade [21]: 0 (Herbicidal rate of 5% or less (almost no effect))
- R: persian speedwell, herbicidal effect grade ([22]; three weeks after application): 5 (Herbicidal rate of 90% or more (almost completely withered))
- G: green foxtail, herbicidal effect grade ([24]; three weeks after application): 0 (Herbicidal rate of 5% or less (almost no effect))
- F: southern crabgrass, herbicidal effect grade ([25]; three weeks after application): 2 (Herbicidal rate of 20% or more and less than 40%)
- M: velvetleaf, herbicidal effect grade ([26]; three weeks after application): 3 (Herbicidal rate of 40% or more and less than 70%)
- N: redroot pigweed, herbicidal effect grade [29]: 4 (Herbicidal rate of 70% or more and less than 90%)
- Q: false cleavers, herbicidal effect grade ([27]; three weeks after application): 4 (Herbicidal rate of 70% or more and less than 90%)
